# In patent publication US12691101B2, “Compound and method for preventing or treating of respiratory diseases comprising the same as an active ingredient” (YONSEI UNIVERSITY, UNIVERSITY - INDUSTRY FOUNDATION (UIF), priority 2019, dated 2026):
# Assays:
# NF-κ = assay: IVIS lung fluorescence in LPS-treated NF-κ reporter/SPC-Cre-ERT2 mice; assay type: in vivo, mouse; conditions: 10 mg/kg i.p., 6 hours after LPS
# Source text: From Orient Bio (Sungnam, Republic of Korea), 8-10-week-old wild-type male C57BL/6J mice having a body weight of 20-24 g were purchased. Food and water were provided to all the animals, and the similar optical cycle of day and night was applied. Transfected NF-κ reporter/SPC-Cre-ERT2 mice were used for IVIS in the present invention. Briefly, NF-κ reporter mice contain ROSA26 lox-STOP-lox-cassette inserted between a promoter and NF-κ gene. In general, a stop gene is positioned between loxP and loxP, and NF-κ is not expressed. NF-κ reporter/SPC-Cre-ERT2 mice were obtained by raising ROSA26R mice to surfactant protein C(SPC)-Cre-ERT2 mice. The Cre-ERT2 recombinase activity in these transfected mice was induced by tamoxifen. These NF-κ reporter/SPC-Cre-ERT2 mice express NF-κ activity in the alveolar epithelium by one of dTomato fluorescence or luciferase in presence of tamoxifen. […]
# Imaging of living animals and organs was performed using IVIS […] imaging system Caliper Life Sciences, Preston Brook Runcorn, UK). […] Fluorescence excite light was provided by a halogen lamp combined with an appropriate excite filter. […] The fluorescence imaging was obtained with an excitation wavelength of 554 nm and an emission wavelength of 581 nm (dTomato). […] In Living Image software (version 3.2, Caliper Life Sciences), using an area of interest tool, fluorescence was quantified.
# SLC26A6 = biological target: T1, SLC26A6 (Homo sapiens, UniProt Q9BXS9); assay: Cl^−/HCO3^− exchange in CHO-K1 cells expressing SLC26A6; assay type: cell-based; conditions: weakly inhibited
# T1 construct: expressed in transfected cells; host or cells: CHO-K1
# Description: (§1) (A) The inhibition of mouse pendrin (mPDS)-mediated Cl^−/I^− exchange activity by F56 was measured in CHO-K1 cells (mean±S.E., n=5). The indicated concentration of F56 was pretreated for 10 minutes. (B) Summary of dose-response for inhibition of the human pendrin (hPDS)-mediated (closed circle, FIG. (a), C) and mPDS-mediated (open circle) Cl^−/I^− exchange activity. (C-F) Representative traces of intracellular pH in CHO-K1 cells expressing SLC26A3, SLC26A6, SLC26A7 and SLC26A9 were shown. The application of Cl^− free solution induced intracellular alkalization by Cl^−/HCO3^− exchange. The indicated concentration of F56 was pretreated for 10 minutes. (G) the effect of F56 (100 μM) on the CFTR chloride channel activity was measured in FRT cells expressing human CFTR. The CFTR current was activated by 20 μM forskolin and was inhibited by 10 μM CFTRinh-172. (H) The effect of F56 (100 μM) on the AN01 chloride channel activity was measured in FRT cells expressing human AN01. Before 10 minutes prior to AN01 activation by 100 μM ATP, F56 was added. (Right) Peak current summary (mean±S.E., n=3). (I) The effect of F56 on the hERG (Kv11.1) potassium channel activity was measured in HEK293T cells expressing human Kv11.1 (mean±S.E., n=4). […] (J) The effect of F56 on the 5-HT2A channel activity was measured in FRT cells expressing human 5-HT2A (mean±S.E., n=4). […]
# SLC26A9 = biological target: T2, SLC26A9 (Homo sapiens, UniProt Q7LBE3); assay: Cl^−/HCO3^− exchange in CHO-K1 cells expressing SLC26A9; assay type: cell-based
# T2 construct: expressed in transfected cells; host or cells: CHO-K1
# Description: as §1
# T1 sequence (Q9BXS9 whole entry, species assumed): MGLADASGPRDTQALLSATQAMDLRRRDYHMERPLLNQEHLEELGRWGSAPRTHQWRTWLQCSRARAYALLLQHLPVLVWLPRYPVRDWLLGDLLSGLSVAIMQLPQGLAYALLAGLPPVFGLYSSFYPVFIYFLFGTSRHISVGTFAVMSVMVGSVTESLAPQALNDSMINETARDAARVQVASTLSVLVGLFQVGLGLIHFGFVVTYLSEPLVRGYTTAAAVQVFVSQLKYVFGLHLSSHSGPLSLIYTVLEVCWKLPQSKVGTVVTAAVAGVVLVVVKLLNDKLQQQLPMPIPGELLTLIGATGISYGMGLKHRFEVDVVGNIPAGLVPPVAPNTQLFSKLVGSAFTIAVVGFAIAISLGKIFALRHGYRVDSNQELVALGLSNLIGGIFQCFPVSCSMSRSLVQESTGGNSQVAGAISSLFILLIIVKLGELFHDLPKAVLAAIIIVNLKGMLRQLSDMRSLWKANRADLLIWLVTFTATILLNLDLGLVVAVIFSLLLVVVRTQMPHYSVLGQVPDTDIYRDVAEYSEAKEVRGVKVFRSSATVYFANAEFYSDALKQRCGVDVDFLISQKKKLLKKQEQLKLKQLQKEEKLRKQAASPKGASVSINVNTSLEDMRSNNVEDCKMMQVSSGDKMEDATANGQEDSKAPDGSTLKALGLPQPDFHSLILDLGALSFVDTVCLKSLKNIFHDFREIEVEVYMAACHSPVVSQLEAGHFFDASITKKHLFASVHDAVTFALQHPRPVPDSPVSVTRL
# T2 sequence (Q7LBE3 whole entry, species assumed): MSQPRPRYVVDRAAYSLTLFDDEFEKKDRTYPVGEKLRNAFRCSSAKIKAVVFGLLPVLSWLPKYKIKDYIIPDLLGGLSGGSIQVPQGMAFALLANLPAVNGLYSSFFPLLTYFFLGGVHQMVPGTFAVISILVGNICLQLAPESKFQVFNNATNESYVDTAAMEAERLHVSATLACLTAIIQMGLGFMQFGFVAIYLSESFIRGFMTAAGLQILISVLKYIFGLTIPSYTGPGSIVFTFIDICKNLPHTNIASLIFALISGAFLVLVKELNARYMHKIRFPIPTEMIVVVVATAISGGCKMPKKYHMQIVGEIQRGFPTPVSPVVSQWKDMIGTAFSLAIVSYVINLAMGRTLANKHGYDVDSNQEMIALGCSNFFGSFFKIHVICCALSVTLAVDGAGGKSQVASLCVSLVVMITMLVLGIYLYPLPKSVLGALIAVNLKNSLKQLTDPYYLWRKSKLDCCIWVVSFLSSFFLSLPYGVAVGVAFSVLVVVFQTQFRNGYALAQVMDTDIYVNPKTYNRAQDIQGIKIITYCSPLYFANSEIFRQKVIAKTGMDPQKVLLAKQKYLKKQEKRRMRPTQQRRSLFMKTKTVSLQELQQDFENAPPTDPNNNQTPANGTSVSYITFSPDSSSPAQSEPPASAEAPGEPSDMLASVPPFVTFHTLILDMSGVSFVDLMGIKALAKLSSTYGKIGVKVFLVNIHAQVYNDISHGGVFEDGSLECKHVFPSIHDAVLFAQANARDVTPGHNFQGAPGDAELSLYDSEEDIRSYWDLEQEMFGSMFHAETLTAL
smiles,measurement,setting,value
"CC(C)(C)c1ccc(C2=NC(=Cc3cccs3)C(=O)O2)cc1 [F56, 2-(4-(tert-butyl)phenyl)-4-(thiophen-2-ylmethylene)oxazol-5(4H)-one]",fluorescence of the excised lung (NF-κ activation),NF-κ,inhibited
same,IC50,SLC26A6,> 100 µM
same,effect on SLC26A9 Cl^−/HCO3^− exchange,SLC26A9,did not affect
